Common to all, as to assay: growth of human tumour cells (NCI), 48 h
In experiment [1] the test system is RXF 393 renal.
In experiment [2] the test system is NCI/ADR-RES ovarian.
Experiment [3] has as its system NCI-H226 lung.
In experiment [4] the test system is 786-0 renal.
The test system of experiment [5] is PC-3 prostate.
Experiment [6] deals with OVCAR-5 ovarian.
For experiment [7], the system named is SNB-19 CNS.
For experiment [8], the system named is HS 578T breast.
In experiment [9] the test system is HT29 colon.
Experiment [10] concerns UACC-62 melanoma.
For experiment [11], the system named is DU-145 prostate.
Experiment [12] concerns EKVX NSCLC.
Experiment [13] deals with SK-MEL-5 melanoma.
Experiment [14] has as its system SK-MEL-28 melanoma.
In experiment [15] the test system is OVCAR-4 ovarian.
The test system of experiment [16] is HOP-92 NSCLC.
Experiment [17] deals with A498 renal.

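Five compound concentrations were applied to cells in 96-well plates for 48 hours; endpoints were derived by simple linear interpolation of the resulting dose-response curve. TGI: total growth inhibition.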

For `O=C(CP(=O)(c1ccccc1)c1ccccc1)c1cccc(C(=O)CP(=O)(c2ccccc2)c2ccccc2)c1`, the TGI in experiment [1] is 52.7 µM; in experiment [2], above 100 µM; in [3], above 100 µM; in experiment [4] it was above 100 µM; in experiment [5] it was above 100 µM; in [6], above 100 µM. Besides, the TGI in [7] is above 100 µM; in [8] it was 57.9 µM; in experiment [9] it was above 100 µM; in experiment [10], above 100 µM; in experiment [11], above 100 µM; in experiment [12], above 100 µM. Moreover, the TGI in experiment [13], in experiment [14] and in experiment [15] was above 100 µM throughout.
Take `N=C1C(=N)c2ccccc2-c2ccccc21.[Cl-].[Ru+2].c1cnc2c(c1)ccc1cccnc12.c1cnc2c(c1)ccc1cccnc12`: the TGI is above 100 µM in [1]; above 100 µM in [4]; above 100 µM in [6]; above 100 µM in [9]; above 100 µM in [10]; 93.5 µM in experiment [12]. The TGI in experiment [13] worked out at 34.4 µM; in [14], 60.7 µM; in [15], 77.7 µM; in experiment [16] it was 67.9 µM.
`CCN(CC)C(=O)c1cc(OC(C)C)ccc1-c1c(C)cc(OC(C)C)c(OC)c1OC`: the TGI in experiment [1], in experiment [3], in experiment [6], in experiment [7], in experiment [9] and in [10] was above 100 µM each time. For the same compound, the TGI in experiment [12], in [13], in experiment [14] and in experiment [15] was above 100 µM throughout.
As to `CC(C)=CCc1c(O)cc(O)c2c1OC(c1ccc(O)cc1)C(O)C2=O` (stereo unspecified), the TGI was 49.9 µM in experiment [1]; 56.7 µM in experiment [3]; 61.1 µM in experiment [6]; above 100 µM in [7]; 40.3 µM in experiment [9]; 46.8 µM in experiment [10]. The TGI in experiment [17] was above 100 µM; in experiment [12], 56.3 µM; in experiment [13], 41.4 µM; in [14], 50.7 µM; in [15], above 100 µM; in experiment [16] it was 39.7 µM.
In the case of `CC(=O)OC1C=C(C=O)C(O)(C=O)C2(C)CCCC(C)(C)C12` (stereo unspecified), the TGI in experiment [1] was determined as 1.01 µM; in experiment [2], 5.57 µM; in [3] it was 4.62 µM; in experiment [6], 8.16 µM; in [7], 12 µM; in experiment [9], 3.65 µM. The TGI is 6.1 µM in experiment [10]; 2.31 µM in [17]; 6.13 µM in experiment [12]; 2.2 µM in experiment [13]; 3.42 µM in [14]; 4.01 µM in [15]. In experiment [16], this compound came in with a TGI of 2.98 µM.
Take `O=C1C2=Cc3ccccc3CCN2c2ccccc21`: the TGI is above 77.9 µM in experiment [2]; 22 µM in experiment [3]; above 31.6 µM in [4]; above 62.7 µM in experiment [5]; above 100 µM in [6]; above 100 µM in experiment [7]. The TGI in [8] was above 100 µM; in experiment [9] it was 23 µM; in [11], above 100 µM; in experiment [17], 25.9 µM; in experiment [12], above 94.5 µM; in [13], 34.1 µM. Moreover, the TGI in experiment [14] was above 82.3 µM; in [15], above 100 µM; in experiment [16], above 92.3 µM.
On to `Cc1nc(N)c(N2CCN(S(N)(=O)=O)CC2)c(=O)[nH]1`, for which the TGI in experiment [2], in [3], in experiment [4], in experiment [5], in [6] and in [7] was above 100 µM in each case. In addition, the TGI in experiment [8], in experiment [9], in experiment [11], in experiment [17], in experiment [12] and in [14] was above 100 µM throughout. Further, in experiment [15], the TGI was above 100 µM.
For `Cc1[nH]c(=O)[nH]c(=O)c1/C=C/C(=O)NC(CO)CC(C)C` (stereo unspecified), the TGI in experiment [1], in experiment [2], in experiment [3], in experiment [6], in experiment [7] and in experiment [9] was above 375 µM in each case. The TGI in experiment [10], in [17], in [12], in [13], in experiment [14] and in [15] was above 375 µM each time. The compound further came in with a TGI in experiment [16] above 343 µM.
Consider `CCC1CN2CCc3cc(OC)c(OC)cc3C2CC1CC1c2cc(OC)c(OC)cc2CCN1C(=O)C(N)Cc1ccccc1` (stereo unspecified), for which the TGI in [1] is 4.37 µM; in experiment [6] it was 9.55 µM; in experiment [7], 6.98 µM; in experiment [9], 10.4 µM; in experiment [10], 11.2 µM; in [17], 11 µM. The TGI in [12] worked out at 4.37 µM; in experiment [13], 5.34 µM; in experiment [14], 10.3 µM; in experiment [16], 6.41 µM.
